Laboratory results as given in patent US12187684B2, “Benzimidazole derivatives as modulators of retinoid-related orphan receptor gamma (RORγ) and pharmaceutical use thereof” (Jiangsu Hengrui Medicine Co., Ltd., priority 2018, dated 2025).

Key:
[1] = system: IL-17 production, human PBMC cells; assay: IL-17 production assay using human PBMC; format: cell-based; settings: human PBMC stimulated by cytostim for 3 days, IL-17 ELISA of supernatant
Description: Test Example 2. IL-17 Production Assay Using Human PBMC
• 1. Human PBMC cells (Cat No. 70025.1, Zenbio) • 2. Lymphocyte medium (Cat No. LYMPH-1, Zenbio) • 3. TexMACS (Cat No. 130-097-196, Miltenyi) • 4. Cytostim-human (Cat No. 1130-092-173, Miltenyi) • 5. Human IL-17 ELISA (Cat No. D1700, R&D systems) • 6. Tecan Infinite M1000 plate reader (Tecan)
Experimental Procedure for IL-17 Production Assay
Cryopreserved peripheral blood human mononuclear cells (PBMCs) were rapidly thawed in warmed Lymphocyte media, and centrifuged cell suspension at 1000 rpm for 10 minutes. The supernatant was removed, and the cell pellets were gently resuspended in TexMACS media.
Human PBMC cells in TexMACS media were plated at 1×10^5 each well in triplicate. The test compounds at various concentrations or vehicle control (<0.5% DMSO) were added into cell culture. The cells were stimulated by cytostim (10 μL/mL) for 3 days in a humidified, 5% CO2 incubator at 37° C.
After incubation, the cell culture supernatant was harvested, and then removed particulates by centrifugation. Human IL-17 in the supernatant was measured using human IL-17 ELISA kit according to the manufacturer's protocol. IC50 values were determined using GraphPad Prism by plotting the compounds concentration versus percent inhibition.

RORγ LBD-GST tagged = molecular target: T1, RORγ LBD-GST tagged (Homo sapiens, UniProt P51449); assay: LanthaScreen TR-FRET RORγ coactivator assay; format: biochemical; settings: Fluorescein-D22 coactivator peptide, 1 hour room temperature
T1 construct: RORγ LBD-GST tagged (Cat No. RORC-114H, Creative Biomart); purchased Creative Biomart RORC-114H
T1 sequence (P51449 269-508 limits assumed): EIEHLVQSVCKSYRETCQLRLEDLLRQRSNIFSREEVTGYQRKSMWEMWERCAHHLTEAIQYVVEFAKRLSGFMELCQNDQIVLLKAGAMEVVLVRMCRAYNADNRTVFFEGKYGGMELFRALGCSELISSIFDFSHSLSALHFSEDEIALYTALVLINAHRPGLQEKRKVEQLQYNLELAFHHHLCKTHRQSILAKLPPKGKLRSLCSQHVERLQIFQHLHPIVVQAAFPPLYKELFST
Outline: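 GST-tagged RORγ LBD (25 ng/reaction) was incubated in coregulator buffer D with 5 mM DTT and compound (top 3 μM, 7-fold steps, 7 doses), then with a mix containing 0.6 μM fluorescein-D22 peptide and 8 nM Tb anti-GST antibody. After 1 h at room temperature in the dark, 520/495 nm TR-FRET was read. IC50 came from log concentration versus percent inhibition.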

| SMILES | IC50 ([1]; Homo sapiens, PBMC, 72 h) [µM] | IC50 (RORγ LBD-GST tagged) [µM] | IC50 [1] [µM] |
| --- | --- | --- | --- |
| O=S(=O)(CC1CC1)c1ccc(C(CCO)c2nc3cc(Cl)c(N4CCC(F)(F)CC4)c(Cl)c3[nH]2)cc1 (single isomer, unassigned) [3-(4-((cyclopropylmethyl)sulfonyl)phenyl)-3-(5,7-dichloro-6-(4,4-difluoropiperidin-1-yl)-1H-benzo[d]imidazol-2-yl)propan-1-ol] | 0.006 | 0.003 | – |
| O=S(=O)(CC1CC1)c1ccc(C(CCN2CCOCC2)c2nc3cc(-c4ccccc4OC(F)F)c(Cl)cc3[nH]2)cc1 (single isomer, unassigned) [164 or 165 made from Int-164A, (R or S)-4-(3-(6-chloro-5-(2-(difluoromethoxy)phenyl)-1H-benzo[d]imidazol-2-yl)-3-(4-((cyclopropylmethyl)sulfonyl)phenyl)propyl)morpholine] | 0.28 | 1.25 | – |
| O=S(=O)(CC1CC1)c1ccc(C(CCN2CCOCC2)c2nc3cc(-c4ccccc4OC(F)F)c(Cl)cc3[nH]2)cc1 (single isomer, unassigned) [164 or 165 made from Int-164B, (R or S)-4-(3-(6-chloro-5-(2-(difluoromethoxy)phenyl)-1H-benzo[d]imidazol-2-yl)-3-(4-((cyclopropylmethyl)sulfonyl)phenyl)propyl)morpholine] | – | 0.418 | 0.35 |
| CCS(=O)(=O)c1ccc(C(CCO)c2nc3c(Cl)c(N4CCC(F)(F)CC4)c(Cl)cc3[nH]2)cc1 (single isomer, unassigned) [the shorter retention time of 139 and 140] [3-(4,6-dichloro-5-(4,4-difluoropiperidin-1-yl)-1H-benzo[d]imidazol-2-yl)-3-(4-(ethylsulfonyl)phenyl)propan-1-ol] | – | – | 0.214 |
| CCS(=O)(=O)c1ccc(C(CC(N)=O)c2nc3c(Cl)c(N4CCC(F)(F)CC4)c(Cl)cc3[nH]2)cc1 (single isomer, unassigned) [the shorter retention time of 146 and 147] [3-(4,6-dichloro-5-(4,4-difluoropiperidin-1-yl)-1H-benzo[d]imidazol-2-yl)-3-(4-(ethylsulfonyl)phenyl)propanamide] | – | – | 0.315 |
| CC(C)Oc1ccccc1-c1cc2nc(C(CC(N)=O)c3ccc(S(=O)(=O)CC4CC4)cc3)[nH]c2cc1Cl (single isomer, unassigned) [the shorter retention time of 148 and 149] [3-(6-chloro-5-(2-isopropoxyphenyl)-1H-benzo[d]imidazol-2-yl)-3-(4-((cyclopropylmethyl)sulfonyl)phenyl)propanamide] | – | – | 0.555 |
| CC(C)Oc1ccccc1-c1cc2nc(C(CCO)c3ccc(S(=O)(=O)CC4CC4)cc3)[nH]c2cc1Cl (single isomer, unassigned) [the shorter retention time of 150 and 151] [3-(6-chloro-5-(2-isopropoxyphenyl)-1H-benzo[d]imidazol-2-yl)-3-(4-((cyclopropylmethyl)sulfonyl)phenyl)propan-1-ol] | – | – | 0.718 |
| NC(=O)CC(c1ccc(S(=O)(=O)CC2CC2)cc1)c1nc2cc(-c3ccccc3OC(F)F)c(Cl)cc2[nH]1 (single isomer, unassigned) [the shorter retention time of 152 and 153] [3-(6-chloro-5-(2-(difluoromethoxy)phenyl)-1H-benzo[d]imidazol-2-yl)-3-(4-((cyclopropylmethyl)sulfonyl)phenyl)propanamide] | – | – | 0.86 |
| O=S(=O)(CC1CC1)c1ccc(C(CCO)c2nc3cc(-c4ccccc4OC(F)F)c(Cl)cc3[nH]2)cc1 (single isomer, unassigned) [the shorter retention time of 155 and 156] [3-(6-chloro-5-(2-(difluoromethoxy)phenyl)-1H-benzo[d]imidazol-2-yl)-3-(4-((cyclopropylmethyl)sulfonyl)phenyl)propan-1-ol] | – | – | 0.135 |
| NC(=O)CC(c1ccc(S(=O)(=O)CC2CC2)cc1)c1nc2cc(Cl)c(N3CCC(F)(F)CC3)c(Cl)c2[nH]1 (single isomer, unassigned) [the shorter retention time of 162 and 163] [3-(4-((cyclopropylmethyl)sulfonyl)phenyl)-3-(5,7-dichloro-6-(4,4-difluoropiperidin-1-yl)-1H-benzo[d]imidazol-2-yl)propanamide] | – | – | 0.069 |
| CCS(=O)(=O)c1ccc(C(CO)c2nc3c(F)c(-c4ccccc4F)c(F)cc3[nH]2)cc1 (centres unmarked) [Example 112, 2-(4,6-difluoro-5-(2-fluorophenyl)-1H-benzo[d]imidazol-2-yl)-2-(4-(ethylsulfonyl)phenyl)ethanol] | – | 0.076 | – |
| CCS(=O)(=O)c1ccc(C(O)c2nc3c(F)c(-c4ccccc4OC)c(F)cc3[nH]2)cc1 (centres unmarked) [Example 113, (4,6-difluoro-5-(2-methoxyphenyl)-1H-benzo[d]imidazol-2-yl)(4-(ethylsulfonyl)phenyl)methanol] | – | 0.18 | – |
| CCS(=O)(=O)c1ccc(C(CO)c2nc3c(F)c(-c4ccccc4)c(F)cc3[nH]2)cc1 (centres unmarked) [Example 114, 2-(4,6-difluoro-5-phenyl-1H-benzo[d]imidazol-2-yl)-2-(4-(ethylsulfonyl)phenyl)ethanol] | – | 0.564 | – |
| CCS(=O)(=O)c1ccc(Cc2nc3c(C)c(-c4ccccc4C(F)(F)F)c(C)cc3[nH]2)cc1 [Example 115, 2-(4-(ethylsulfonyl)benzyl)-4,6-dimethyl-5-(2-(trifluoromethyl)phenyl)-1H-benzo[d]imidazole] | – | 0.171 | – |
| CCS(=O)(=O)c1ccc(C(CO)c2nc3c(C)c(-c4ccccc4C(F)(F)F)c(C)cc3[nH]2)cc1 (centres unmarked) [Example 116, 2-(4,6-dimethyl-5-(2-(trifluoromethyl)phenyl)-1H-benzo[d]imidazol-2-yl)-2-(4-(ethylsulfonyl)phenyl)ethanol] | – | 0.235 | – |
| CCS(=O)(=O)c1ccc(C(CO)c2nc3c(C)c(-c4ccccc4OC)c(C)cc3[nH]2)cc1 (centres unmarked) [Example 117, 2-(4-(ethylsulfonyl)phenyl)-2-(5-(2-methoxyphenyl)-4,6-dimethyl-1H-benzo[d]imidazol-2-yl)ethanol] | – | 0.149 | – |
| CCS(=O)(=O)c1ccc(C(O)c2nc3c(C)c(-c4ccccc4OC)c(C)cc3[nH]2)cc1 (centres unmarked) [Example 118, (4-(ethylsulfonyl)phenyl)(5-(2-methoxyphenyl)-4,6-dimethyl-1H-benzo[d]imidazol-2-yl)methanol] | – | 0.306 | – |
| CCS(=O)(=O)c1ccc(C(CO)c2nc3cc(-c4ccccc4OC(F)(F)F)c(F)cc3[nH]2)cc1 (centres unmarked) [Example 120, 2-(4-(ethylsulfonyl)phenyl)-2-(6-fluoro-5-(2-(trifluoromethoxy)phenyl)-1H-benzo[d]imidazol-2-yl)ethanol] | – | 0.321 | – |
| CCS(=O)(=O)c1ccc(C(O)c2nc3cc(-c4ccccc4OC(F)(F)F)c(F)cc3[nH]2)cc1 (centres unmarked) [Example 121, (4-(ethylsulfonyl)phenyl)(6-fluoro-5-(2-(trifluoromethoxy)phenyl)-1H-benzo[d]imidazol-2-yl)methanol] | – | 0.966 | – |
| O=S(=O)(NC1CC1)c1ccc(Cc2nc3c(Cl)c(-c4ccccc4OC(F)(F)F)c(Cl)cc3[nH]2)cc1 [Example 122, N-cyclopropyl-4-((4,6-dichloro-5-(2-(trifluoromethoxy)phenyl)-1H-benzo[d]imidazol-2-yl)methyl)benzenesulfonamide] | – | 0.049 | – |
